Converted amounts (≈) assume the structure as drawn. Read-outs that look alike come from different tables or passages of the source.
Assays:
[1] = molecular target: T1, equine serum butyrylcholinesterase (BChE, EC 3.1.1.8) (Equus caballus, UniProt P81908); assay: Inhibition of equine serum butyrylcholinesterase (Ellman assay); format: biochemical; conditions: read-out: Inhibition % at 20 µM, Equine BChE
T1 construct: equine serum butyrylcholinesterase (BChE, EC 3.1.1.8); purchased Sigma-Aldrich (Saint Louis, MO, USA); host or cells: equine serum
T1 sequence (P81908 whole entry): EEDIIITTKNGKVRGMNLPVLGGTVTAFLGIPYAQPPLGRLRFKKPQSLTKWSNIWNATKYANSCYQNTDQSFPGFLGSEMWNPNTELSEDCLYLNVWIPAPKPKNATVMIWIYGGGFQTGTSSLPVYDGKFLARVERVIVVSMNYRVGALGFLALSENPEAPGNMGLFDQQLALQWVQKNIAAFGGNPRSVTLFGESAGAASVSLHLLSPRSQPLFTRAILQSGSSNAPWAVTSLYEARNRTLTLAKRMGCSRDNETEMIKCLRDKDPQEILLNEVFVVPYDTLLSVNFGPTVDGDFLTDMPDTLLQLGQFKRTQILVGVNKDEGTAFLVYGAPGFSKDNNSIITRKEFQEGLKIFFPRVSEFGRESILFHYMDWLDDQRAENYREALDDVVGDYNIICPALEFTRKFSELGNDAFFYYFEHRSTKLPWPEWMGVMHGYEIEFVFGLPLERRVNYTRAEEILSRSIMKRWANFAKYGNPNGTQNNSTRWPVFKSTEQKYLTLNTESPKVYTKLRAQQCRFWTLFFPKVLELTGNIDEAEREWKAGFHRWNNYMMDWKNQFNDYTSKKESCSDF
Text: The following enzymes were purchased from Sigma-Aldrich (Saint Louis, MO, USA): porcine liver carboxylesterase (CES, EC 3.1.1.1), human erythrocyte acetylcholinesterase (AChE, EC 3.1.1.7) and equine serum butyrylcholinesterase (BChE, EC 3.1.1.8). Substrates for CES, AChE and BChE were 4-nitrophenyl acetate (4-NPA), acetylthiocholine iodide (ATCh) and butyrylthiocholine iodide (BTCh), respectively, and the colorimetric reagent for the AChE and BChE assays was 5,5’-dithio-bis-(2-nitrobenzoic acid) (DTNB) (Sigma-Aldrich). All the kinetic experiments were performed under standard conditions, according to the protocol of IPAC RAS for a reversible inhibitors study.
Final concentrations of reactants were 0.33 mM DTNB, 0.02 unit/mL of AChE or BChE and 1 mM of substrate (ATCh or BTCh, respectively). Reagent blanks consisted of reaction mixtures without enzyme to assess non-enzymatic hydrolysis of substrates.
Test compounds were dissolved in DMSO. Reaction mixtures contained a final DMSO concentration of 2% (v/v). […] Substrate was then added and residual enzyme activity relative to an inhibitor-free control was measured using a Bio-Rad Benchmark Plus microplate reader (Marnes-la-Coquette, France).
Measurements were performed in a Bio-Rad Benchmark Plus microplate reader. Each experiment was performed in triplicate. Plots, linear regressions and values of IC50, were determined using Origin 6.1 for Windows, OriginLab (Northampton, MA, USA).

[2] = ABTS radical cation scavenging activity assay; parameters: key to ABTS•+-scavenging activity, TEAC (trolox equivalent antioxidant capacity): TEAC = ratio of compound slope to Trolox slope vs ABTS absorbance; conditions: mean ± SEM; for ABTS•+-scavenging activity, TEAC (trolox equivalent antioxidant capacity): n.a. = inactive
Procedure: Radical scavenging activity of the compounds was evaluated by the ABTS radical cation (ABTS^•+) scavenging assay by the ability of the compounds to decolorize the ABTS^•+ solution [112] with some modifications. Trolox was used as a reference standard. Edaravone was used as the comparison compound. All tested compounds and standards were dissolved in DMSO. ABTS (2,2′-azinobis-(3-ethylbenzothiazoline-6-sulfonic acid)) was purchased from Tokyo Chemical Industry Co. Ltd. (Tokyo, Japan). Potassium persulfate (di-potassium peroxdisulfate), Trolox® (6-hydroxy-2,5,7,8-tetramethychroman-2-carboxylic acid), ascorbic acid, DMSO and HPLC-grade ethanol were obtained from Sigma-Aldrich Chemical Co. Aqueous solutions were prepared using deionized water.
The solution of ABTS^•+ was produced by mixing 7 mM ABTS aqueous solution with 2.45 mM potassium persulfate aqueous solution in equal quantities and allowing them to react for 12–16 h at room temperature in the dark. Radical scavenging capacity of the compounds was analyzed by mixing 10 μL of compound with 240 μL of ABTS^•+ working solution in ethanol (100 μM final concentration), and after 1 h of incubation at 30 °C the decrease in absorbance was measured spectrophotometrically at 734 nm using a Bio-Rad xMark microplate UV/VIS spectrophotometer (Bio-Rad, Hercules, CA, USA). The compounds were tested in the concentration range of 5 × 10^–7–4 × 10^–4 M. Ethanol blanks were run in each assay. Values were obtained from five replicates of each sample and three independent experiments.
Antioxidant activity was calculated as Trolox equivalent antioxidant capacity (TEAC values), consisting of the ratio between the slopes obtained from the linear correlation for concentrations of the tested compounds and Trolox with absorbance of ABTS radical. For the test compounds, which reduce ABTS^•+ absorbance by more than 60% at 100 µM, we also determined IC50 values as 50% reduction of the ABTS radical. The calculations were carried out using Origin 6.1 for Windows. Results were presented as mean ± SEM, calculated using GraphPad Prism version 6.05 for Windows, GraphPad Software.

[3] = Oxygen radical absorbance capacity (ORAC-FL) assay; conditions: n.a. = inactive; i.t.s. = interferes with test system
Text: We evaluated the primary antioxidant activity of synthesized 4-AHPs 5–9 in comparison with their non-fluorinated analogues 9a,b using three standard tests: ABTS, FRAP (ferric reducing antioxidant power) and ORAC (oxygen radical absorbance capacity) assays. The ABTS assay evaluates the binding of a model ABTS radical cation (ABTS^•+), which is realized by the mechanism of single electron transfer (SET) and/or hydrogen atom transfer (HAT). The FRAP assay measures the ability of compounds to reduce the ferric 2,4,6-tripyridyl-s-triazine complex [Fe(TPTZ)2]^3+ to [Fe(TPTZ)2]^2+, which occurs exclusively by the SET mechanism. The ORAC-FL assay measures the oxidative degradation of the fluorescent molecule (FL – fluorescein) after being mixed with a free peroxyl radical generator such as 2,2′-azobis-(2-methylpropionamidine) dihydrochloride (AAPH) in the presence of antioxidant (tested compound). The ORAC-FL test describes the antioxidants’ ability to yield the hydrogen atom and, consequently, it is a HAT-based assay. Trolox was used in all tests as a reference antioxidant: the antioxidant activity of the test compounds was referred to the activity of Trolox. The well-known antioxidant Edaravone was also used for comparison.
The ORAC assay was performed according to the known method, with minor variations and described by us recently.

[4] = system: Neisseria gonorrhoeae ATCC 49226/NCTC 12700; assay: Antibacterial activity against Neisseria gonorrhoeae; format: cell-based; conditions: read-out: MIC against Neisseria gonorrhoeae
Procedure: Antibacterial activity testing was done on the growth medium Difco GC medium base (Becton Dickinson, Franklin Lakes, NJ, USA) supplemented with 1% IsoVitaleX. Dilutions of chemical compounds were carried out in the range of 250–0.12 μg/mL in 24 well sterile plates (Sarstedt, Germany). Daily cultures of control bacterial strains were identified on a VITEK MS analyzer (BioMérieux, Marcy-l’Étoile, France) by MALDI-TOF mass spectrometry. The inoculation dose of N. gonorrhoeae inoculum was 10^5 CFU/mL.

[5] = Acute toxicity evaluation in mice (ip); conditions: CD-1, mouse, in vivo, 300 mg/kg
Procedure: The toxicity evaluation was performed on CD-1 mice. […] The tested compounds in 1% starch mucilage were injected intraperitoneally into three mice. Then, animals were observed during 14 days, the number of deaths was counted and % of viability calculated.

[6] = system: Sprague-Dawley (SD) rats; assay: Hot plate test (analgesic activity); format: in vivo; conditions: ip; for change in vivo at 15 mg/kg: Rattus norvegicus
Procedure: The hot plate test was conducted according to established guidelines on Sprague-Dawley (SD) rats (3 male and 3 female rodents per group). The compounds were intraperitoneally administered in the form of suspensions in 1% starch mucilage. Negative control group animals received vehicle only (1% starch mucilage). Diclofenac sodium (Hemofarm, Vršac, Serbia, 10 mg/kg in 1% starch mucilage solution) or metamizole sodium (PAO Biosynthesis, Sun Pharma, Penza, Russia, 15 mg/kg in 1% starch mucilage solution) were used as reference drugs. One and two hours after the injection, rats were placed on an electrically heated to 50 °C plate (Hot plate 60,200 series, TSE-systems, Bad Homburg, Germany) in a Plexiglas cylindrical restrainer (19 cm diameter × 30 cm). The nociceptive response time was measured by observing the appearance of rats’ movements (e.g., jumping, hind paw licking or shaking). Maximal cutoff time was set as 30 s regardless of the response in order to preclude skin damage.
Differences between the values of the latency period for the treated (experimental) and control groups of animals were considered significant at p ≤ 0.05.

[7] = system: Microsporum canis RCPF F 1643/1585; assay: Antifungal susceptibility testing, M. canis; conditions: Microsporum canis, RCPFF1643/1585, read-out: MIC for fungi strains inhibition, M. canis
Text: (§1) The solvent was DMSO. […] In each test, a growth control and a sterility control were used.

[8] = system: Trichophyton rubrum RCPF F 1408; assay: Antifungal susceptibility testing, T. rubrum; conditions: Trichophyton rubrum, RCPFF1408, read-out: MIC for fungi strains inhibition, T. rubrum
Text: as §1

[9] = system: Candida albicans RCPF Y 401/NCTC 885/653; assay: Antifungal susceptibility testing, C. albicans; conditions: NCTC885, read-out: MIC for fungi strains inhibition, C. albicans
Text: as §1

[10] = system: Epidermophyton floccosum RCPF F 1659/17; assay: Antifungal susceptibility testing, E. floccosum; conditions: Epidermophyton floccosum, RCPFF1659/17, read-out: MIC for fungi strains inhibition, E. floccosum
Text: as §1

[11] = hot plate test, rats, dose 15 mg/kg, 1 h, n.a. = inactive (p > 0.05), read-out: Latent Period Prolongation, % 1 h
[12] = hot plate test, rats, dose 15 mg/kg, 2 h, n.a. = inactive (p > 0.05), read-out: Latent Period Prolongation, % 2 h

Row | SMILES | inhibition at 20 µM [1] [%] | ABTS•+-scavenging activity, TEAC (trolox equivalent antioxidant capacity) [2] | ORAC-FL (TE, antioxidant activity in Trolox equivalents) [3] | MIC [4] [µg/mL] | survival at 14 days [5] [%] | change in vivo at 15 mg/kg [6, 11] [%] | change in vivo at 15 mg/kg [6, 12] [%] | MIC [7] [µg/mL] | MIC [8] [µg/mL] | MIC [9] [µg/mL] | MIC [10] [µg/mL] | analgesic activity in the hot plate test ([6]; SD rats, dose 15 mg/kg, 1 and 2 h) | IC50 [2] [µM] | change in vivo at 15 mg/kg ([6]; 1 h, read-out: Latent Period Prolongation, % 1 h) [%] | change in vivo at 15 mg/kg ([6]; 2 h, read-out: Latent Period Prolongation, % 2 h) [%]
1 | O=C1/C(=N\Nc2ccccc2)C(C(F)(F)F)=NN1c1ccccc1 [5e, (4Z)-2-Phenyl-4-(2-phenylhydrazinylidene)-5-(trifluoromethyl)-2,4-dihydro-3H-pyrazol-3-one] | 5.1 ± 0.9 | 0.02 | i.t.s. | > 250 | 100 | 100 | 129 | 200 (≈ 602 µM) | 200 (≈ 602 µM) | > 200 | 200 (≈ 602 µM) |  |  |  | 
2 | O=C1/C(=N\Nc2c(Cl)cccc2Cl)C(C(F)(F)F)=NN1c1ccccc1 [5j, (4Z)-4-[2-(2,6-Dichlorophenyl)hydrazinylidene]-2-phenyl-5-(trifluoromethyl)-2,4-dihydro-3H-pyrazol-3-one] | 7.1 ± 1.2 |  |  | 31.2 (≈ 77.8 µM) | 100 |  |  | > 200 | > 200 | > 200 | > 200 | inactive |  |  | 
3 | NS(=O)(=O)c1ccc(N/N=C2\C(=O)N(c3ccccc3)N=C2C(F)(F)F)cc1 [5n, (4Z)-4-(2-[4-(Aminosulfonyl)phenyl]hydrazinylidene)-2-phenyl-5-(trifluoromethyl)-2,4-dihydro-3H-pyrazol-3-one] | 3.5 ± 0.6 |  | i.t.s. |  | 100 |  | 84 |  |  |  |  |  |  |  | 
4 | Cc1ccc(N/N=C2\C(=O)N(c3ccc(C)cc3)N=C2C(F)(F)F)cc1 [5r, (4Z)-2-(4-Methylphenyl)-4-[2-(4-methylphenyl)hydrazinylidene]-5-(trifluoromethyl)-2,4-dihydro-3H-pyrazol-3-one] | 4 ± 1 | 0.13 ± 0.007 |  | > 250 | 100 | 63.2 | 74.2 | > 200 | > 200 | > 200 | > 200 |  |  |  | 
5 | O=C1/C(=N\Nc2cccc(Cl)c2)C(C(F)(F)C(F)(F)F)=NN1c1ccccc1 [6d, (4Z)-4-[2-(3-Chlorophenyl)hydrazinylidene]-5-(pentafluoroethyl)-2-phenyl-2,4-dihydro-3H-pyrazol-3-one] | 7.8 ± 1.2 |  |  | 15.6 (≈ 37.4 µM) | 100 | 93 | 63 | > 200 | > 200 | > 200 | 200 (≈ 480 µM) |  |  |  | 
6 | Cc1ccc(N/N=C2\C(=O)NN=C2C(F)(F)C(F)(F)C(F)(F)C(F)(F)F)cc1 [8a, (4Z)-5-(Nonafluorobutyl)-4-[2-(4-methylphenyl)hydrazinylidene]-2,4-dihydro-3H-pyrazol-3-one] |  | 0.43 ± 0.03 | 2.33 ± 0.15 | 250 (≈ 595 µM) | 100 |  |  | > 200 | > 200 | > 200 | > 200 |  | 48.3 ± 2.2 | 62.9 | 40.4
7 | CN[C@@H]1[C@H](O)[C@H](NC)[C@H]2O[C@@]3(O)C(=O)C[C@@H](C)O[C@H]3O[C@@H]2[C@H]1O [Spectinomycin, reference compound] |  |  |  | 15.6 (≈ 46.9 µM) |  |  |  |  |  |  |  |  |  |  | 
8 | Cc1c(N(C)CS(=O)(=O)O)c(=O)n(-c2ccccc2)n1C [metamizole, reference compound] |  |  |  |  | 100 | 34.2 ± 11.3 | 64.6 ± 22.5 |  |  |  |  |  |  |  | 

From publication PMC9821843, “Powerful Potential of Polyfluoroalkyl-Containing 4-Arylhydrazinylidenepyrazol-3-ones for Pharmaceuticals” (Molecules, 2022)
